Assay results published in patent publication US10544153B2, “Benzoic acid, benzoic acid derivatives and heteroaryl carboxylic acid conjugates of oxycodone, prodrugs, methods of making and use thereof” (KemPharm, Inc., priority 2014, dated 2020).

What was measured:
[1] = Tamper resistance: percent of OC released under tampering conditions, LC-MS/MS; format: physicochemical; conditions: RT
Protocol: Effective abuse deterrent forms of drugs of abuse can also be resistant to chemical tampering. The prodrugs in the present technology also impart this characteristic. Several common tampering scenarios were employed and percent of OC released were determined by liquid chromatography with tandem mass spectrometry (LC-MS/MS). The results as shown in Table 7 indicated a very high degree of tamper resistance in the example OC prodrugs, releasing little to no OC.

[2] = Oral PK in rats: plasma concentrations of oxymorphone by LC-MS/MS; conditions: oxymorphone released; for AUC / Cmax / tmax: conjugate equivalent to 2 mg/kg freebase oxycodone; for %-AUC of OC / %-Cmax of OC / %-tmax of OC: relative to oxycodone (OC)
[3] = Oral PK in rats: plasma concentrations of released oxycodone by LC-MS/MS; conditions: for AUC / Cmax / tmax: conjugate equivalent to 2 mg/kg freebase oxycodone; for %-AUC of OC / %-Cmax of OC / %-tmax of OC: relative to oxycodone (OC)
[4] = Intranasal PK in rats (Table 4); conditions: title: oxymorphone released (released oxycodone)
[5] = Intranasal PK in rats: plasma concentrations of released oxymorphone by LC-MS/MS
[6] = equivalent to 2 mg/kg freebase oxycodone
[7] = Table 6, equivalent to 2 mg/kg freebase oxycodone
[8] = Table 6, relative to oxycodone (OC)

COc1ccc2c3c1O[C@H]1C(OC(=O)c4ccc(O)cc4)=CC[C@@]4(OC(=O)c5ccc(O)cc5)[C@@H](C2)N(C)CC[C@]314 [(4-OH-Bz)2-OC]
percent of OC released ([1]; 1N HCl, 1 hour): 0%
percent of OC released ([1]; 5% Bicarbonate, 1 hour): 0%
percent of OC released ([1]; Water, 1 hour): 0%
percent of OC released ([1]; Water, 24 hours): 0%

COc1ccc2c3c1O[C@H]1C(OC(=O)c4ccccc4)=CC[C@@]4(OC(=O)c5ccccc5)[C@@H](C2)N(C)CC[C@]314 [(Bz)2-OC]
percent of OC released ([1]; 1N HCl, 1 hour): 0%
percent of OC released ([1]; 5% Bicarbonate, 1 hour): 0%
percent of OC released ([1]; Water, 1 hour): 0%
percent of OC released ([1]; Water, 24 hours): 0%

COc1cc(C(=O)OC2=CC[C@@]3(O)[C@H]4Cc5ccc(OC)c6c5[C@@]3(CCN4C)[C@H]2O6)ccc1O [4-OH-3-MeO-Bz-OC]
percent of OC released ([1]; 1N HCl, 1 hour): 0%
percent of OC released ([1]; 5% Bicarbonate, 1 hour): 0%
percent of OC released ([1]; Water, 1 hour): 0%
percent of OC released ([1]; Water, 24 hours): 0%

COc1ccc2cc(C(C)C(=O)OC3=CCC4(O)C5Cc6ccc(OC)c7c6C4(CCN5C)C3O7)ccc2c1 (centres unmarked) [Naprox-OC]
percent of OC released ([1]; 1N HCl, 1 hour): <1%
percent of OC released ([1]; 5% Bicarbonate, 1 hour): 0%
percent of OC released ([1]; Water, 1 hour): 0%
percent of OC released ([1]; Water, 24 hours): 0%

COc1ccc2c3c1OC1C(OC(=O)C(C)c4cccc(Oc5ccccc5)c4)=CCC4(O)C(C2)N(C)CCC314 (mixture of isomers) [6-Fenoprofen-OC]
AUC [2]: 4.6 ng·h/mL
Cmax [2]: 3.3 ng/mL
tmax [2]: 15 min
%-AUC of OC [2]: 67%
%-Cmax of OC [2]: 68%
%-tmax of OC [2]: 100%
AUC [3]: 21.6 ng·h/mL
Cmax [3]: 14.0 ng/mL
tmax [3]: 15 min
%-AUC of OC [3]: 69%
%-Cmax of OC [3]: 87%
%-tmax of OC [3]: 83%

COc1ccc(C(=O)OC2=CC[C@@]3(OC(=O)c4ccc(OC)cc4)[C@H]4Cc5ccc(OC)c6c5[C@@]3(CCN4C)[C@H]2O6)cc1 [(4-MeO-Bz)2-OC]
percent of OC released ([1]; 1N HCl, 1 hour): 0%
percent of OC released ([1]; 5% Bicarbonate, 1 hour): 0%
percent of OC released ([1]; Water, 1 hour): 0%
percent of OC released ([1]; Water, 24 hours): 0%

COc1ccc2c3c1O[C@H]1C(OC(=O)c4cccc(N)c4)=CC[C@@]4(OC(=O)c5cccc(N)c5)[C@@H](C2)N(C)CC[C@]314 [(3-ABz)2-OC]
percent of OC released ([1]; 1N HCl, 1 hour): 0%
percent of OC released ([1]; 5% Bicarbonate, 1 hour): 0%
percent of OC released ([1]; Water, 1 hour): 0%
percent of OC released ([1]; Water, 24 hours): 0%

COc1ccc2c3c1OC1C(OC(=O)C(C)c4ccc(CC(C)C)cc4)=CCC4(O)C(C2)N(C)CCC314 (mixture of isomers) [Conjugate 6-lbu-OC]
percent of OC released ([1]; 1N HCl, 1 hour): 2%
percent of OC released ([1]; 5% Bicarbonate, 1 hour): 2%
percent of OC released ([1]; Water, 1 hour): 0%
percent of OC released ([1]; Water, 24 hours): 0%
AUC [2]: 8.4 ng·h/mL
Cmax [2]: 3.7 ng/mL
tmax [2]: 69 min
%-AUC of OC [2]: 83%
%-Cmax of OC [2]: 59%
%-tmax of OC [2]: 131%
Cmax [4, 6]: 131.7 ng/mL
tmax [4, 6]: 4.98 min
%-Cmax of OC ([4]; relative to oxycodone (OC)): 10%
%-tmax of OC ([4]; relative to oxycodone (OC)): 100%
AUC [3]: 77.9 ng·h/mL
Cmax [3]: 39.5 ng/mL
tmax [3]: 26.4 min
%-AUC of OC [3]: 83%
%-Cmax of OC [3]: 62%
%-tmax of OC [3]: 47%
AUC [5, 7]: 0.7 ng·h/mL
Cmax [5, 7]: 1.0 ng/mL
tmax [5, 7]: 30 min
%-AUC of OC [5, 8]: 11%
%-Cmax of OC [5, 8]: 11%
%-tmax of OC [5, 8]: 143%

COc1ccc2c3c1O[C@H]1C(OC(=O)/C=C/c4ccccc4)=CC[C@@]4(OC(=O)/C=C/c5ccccc5)[C@@H](C2)N(C)CC[C@]314 [(Cin)2-OC]
percent of OC released ([1]; 1N HCl, 1 hour): 0%
percent of OC released ([1]; 5% Bicarbonate, 1 hour): 0%
percent of OC released ([1]; Water, 1 hour): 0%
percent of OC released ([1]; Water, 24 hours): 0%

COc1ccc2c3c1O[C@H]1C(OC(=O)c4cccc(O)c4)=CC[C@@]4(O)[C@@H](C2)N(C)CC[C@]314 [Conjugate 3-OH-Bz-OC]
percent of OC released ([1]; 1N HCl, 1 hour): <1%
percent of OC released ([1]; 5% Bicarbonate, 1 hour): 0%
percent of OC released ([1]; Water, 1 hour): 0%
percent of OC released ([1]; Water, 24 hours): 0%

COc1ccc2c3c1O[C@H]1C(OC(=O)c4ccccc4N)=CC[C@@]4(O)[C@@H](C2)N(C)CC[C@]314 [Conjugate 2-ABz-OC]
percent of OC released ([1]; 1N HCl, 1 hour): 0%
percent of OC released ([1]; 5% Bicarbonate, 1 hour): 3%
percent of OC released ([1]; Water, 1 hour): <1%
percent of OC released ([1]; Water, 24 hours): <1%

COc1cc(C(=O)OC2=CC[C@@]3(OC(=O)c4ccc(O)c(OC)c4)[C@H]4Cc5ccc(OC)c6c5[C@@]3(CCN4C)[C@H]2O6)ccc1O [(4-OH-3-MeO-Bz)2-OC]
percent of OC released ([1]; 1N HCl, 1 hour): 0%
percent of OC released ([1]; 5% Bicarbonate, 1 hour): 0%
percent of OC released ([1]; Water, 1 hour): 0%
percent of OC released ([1]; Water, 24 hours): 0%

COc1ccc2c3c1O[C@H]1C(OC(=O)c4cccc(O)c4)=CC[C@@]4(OC(=O)c5cccc(O)c5)[C@@H](C2)N(C)CC[C@]314 [(3-OH-Bz)2-OC]
percent of OC released ([1]; 1N HCl, 1 hour): 0%
percent of OC released ([1]; 5% Bicarbonate, 1 hour): 0%
percent of OC released ([1]; Water, 1 hour): 0%
percent of OC released ([1]; Water, 24 hours): 0%

COc1ccc2c3c1OC1C(OC(=O)C(C)c4cccc(C(=O)c5ccccc5)c4)=CCC4(O)C(C2)N(C)CCC314 (mixture of isomers) [6-Ketoprofen-OC]
percent of OC released ([1]; 1N HCl, 1 hour): 2%
percent of OC released ([1]; 5% Bicarbonate, 1 hour): 3%
percent of OC released ([1]; Water, 1 hour): 0%
percent of OC released ([1]; Water, 24 hours): <1%
AUC [2]: 4.3 ng·h/mL
Cmax [2]: 3.7 ng/mL
tmax [2]: 15 min
%-AUC of OC [2]: 62%
%-Cmax of OC [2]: 77%
%-tmax of OC [2]: 100%
AUC [3]: 25.5 ng·h/mL
Cmax [3]: 14.7 ng/mL
tmax [3]: 15 min
%-AUC of OC [3]: 81%
%-Cmax of OC [3]: 91%
%-tmax of OC [3]: 83%

COc1ccc2c3c1O[C@H]1C(OC(=O)c4ccccc4)=CC[C@@]4(O)[C@@H](C2)N(C)CC[C@]314 [Bz-OC]
percent of OC released ([1]; 1N HCl, 1 hour): 0%
percent of OC released ([1]; 5% Bicarbonate, 1 hour): 0%
percent of OC released ([1]; Water, 1 hour): 0%
percent of OC released ([1]; Water, 24 hours): 0%

COc1ccc2c3c1O[C@H]1C(OC(=O)c4ccccc4O)=CC[C@@]4(O)[C@@H](C2)N(C)CC[C@]314 [Conjugate 2-OH-Bz-OC]
percent of OC released ([1]; 1N HCl, 1 hour): 0%
percent of OC released ([1]; 5% Bicarbonate, 1 hour): 5%
percent of OC released ([1]; Water, 1 hour): 0%
percent of OC released ([1]; Water, 24 hours): 0%

COc1ccc2c3c1O[C@H]1C(OC(=O)c4cccc(N)c4)=CC[C@@]4(O)[C@@H](C2)N(C)CC[C@]314 [Conjugate 3-ABz-OC]
percent of OC released ([1]; 1N HCl, 1 hour): <1%
percent of OC released ([1]; 5% Bicarbonate, 1 hour): <1%
percent of OC released ([1]; Water, 1 hour): 0%
percent of OC released ([1]; Water, 24 hours): 0%
AUC [2]: 3.6 ng·h/mL
Cmax [2]: 2.0 ng/mL
tmax [2]: 26.4 min
%-AUC of OC [2]: 69%
%-Cmax of OC [2]: 49%
%-tmax of OC [2]: 97%
AUC [3]: 52.9 ng·h/mL
Cmax [3]: 45.5 ng/mL
tmax [3]: 33 min
%-AUC of OC [3]: 83%
%-Cmax of OC [3]: 96%
%-tmax of OC [3]: 122%
